Assay [1] deals with T1, histamine H2-receptors (Rattus norvegicus, UniProt P25102).
T1 construct: secretion of gastric acid from the lumen-perfused stomachs of rats anaesthetised with urethane; from tissue; host or cells: stomach of urethane-anaesthetised rats (in vivo, lumen-perfused)
The assay is described as follows: standard lumen-perfused rat test (inhibition of histamine-stimulated secretion of gastric acid from the lumen-perfused stomachs of rats anaesthetised with urethane). It is filed as in vivo. The text has this:
These are actions of histamine which, according to Ash and Schild, Brit. J. Pharmac. Chemother. 27 247 (1966), are not mediated by histamine H1 -receptors.
(§1) The measurement of inhibition of histamine-stimulated secretion of gastric acid from the lumen-perfused stomachs of rats anaesthetised with urethane, and the measurement of inhibition of histamine-induced tachycardia in the isolated guinea pig right atrium, are detailed in U.S. Pat. No. 4,385,058.
(§2) To illustrate the level of activity of these compounds the following data were obtained in the standard guinea pig atrium test and the standard lumen-perfused rat test (for example see EP No. -A-49173).

In assay [2] the target is T2, histamine H2-receptors (Cavia porcellus, UniProt P47747).
T2 construct: from tissue; host or cells: isolated guinea pig right atrium
The assay can be described thus: standard guinea pig atrium test (inhibition of histamine-induced tachycardia in the isolated guinea pig right atrium). It is filed as cell-based. The following applies: for Kb: isolated guinea pig right atrium, read-out: pA2 (guinea-pig atrium) (converted); for slope of response (figure in brackets with pA2, guinea-pig atrium): slope belonging to pA2, guinea-pig atrium.
Text: as §1, §2

T1 sequence (P25102 whole entry, the tested form may be a part): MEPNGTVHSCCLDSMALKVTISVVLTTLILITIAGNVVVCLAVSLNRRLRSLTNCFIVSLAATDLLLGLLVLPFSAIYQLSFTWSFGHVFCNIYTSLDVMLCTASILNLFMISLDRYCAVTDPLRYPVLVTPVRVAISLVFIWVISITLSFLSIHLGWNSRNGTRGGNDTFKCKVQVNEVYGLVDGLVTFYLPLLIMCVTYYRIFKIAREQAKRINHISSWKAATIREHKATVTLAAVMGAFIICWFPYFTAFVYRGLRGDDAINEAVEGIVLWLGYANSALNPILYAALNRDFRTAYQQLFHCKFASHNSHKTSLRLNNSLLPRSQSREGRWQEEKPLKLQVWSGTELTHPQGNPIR
T2 sequence (P47747 whole entry): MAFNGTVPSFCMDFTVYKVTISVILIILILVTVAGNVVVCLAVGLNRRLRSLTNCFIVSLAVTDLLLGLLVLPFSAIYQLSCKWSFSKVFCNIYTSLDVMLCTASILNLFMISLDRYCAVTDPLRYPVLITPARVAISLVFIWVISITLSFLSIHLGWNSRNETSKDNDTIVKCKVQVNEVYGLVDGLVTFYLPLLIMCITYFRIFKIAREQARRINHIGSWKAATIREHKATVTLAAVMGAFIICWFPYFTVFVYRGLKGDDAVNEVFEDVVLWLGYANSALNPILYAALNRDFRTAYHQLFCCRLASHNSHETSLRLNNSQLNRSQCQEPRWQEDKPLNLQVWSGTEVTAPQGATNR

For `CN(C)CC#CCCCCNc1n[s+]([O-])nc1N` (stereo not drawn) [Example 2, 3-Amino-4-[7-dimethylaminohept-5-ynylamino]-1,2,5--thiadiazole-1-oxide], the median effective dose (ED50) on histamine H2-receptors [1] was determined as 0.16 mg/kg. On histamine H2-receptors [2], the Kb was 646 nM and the “slope of response (figure in brackets with pA2, guinea-pig atrium)” value was found to be 0.61.
The like results for `CN(C)CC#CCCCNC1=NS(=O)(=O)N=C1N` [Example 4, 3-Amino-4-[6-dimethylaminohex-4-ynylamino]-1,2,5-thiadiazole-1,1-dioxide] were, in that order, 0.027 mg/kg, 100 nM and 0.88.
In the same order, the values of `CN(C)CC#CCCCCNC1=NS(=O)(=O)N=C1N` [Example 3, 3-Amino-4-[7-dimethylaminohept-5-ynylamino]-1,2,5-thiadiazole-1,1-dioxide] are 0.1 mg/kg, 151 nM and 0.50.
As for `Nc1n[s+]([O-])nc1NCCCCC#CCN1CCCCC1` (stereo not drawn) [Example 1, 3-Amino-4-[7-piperidinohept-5-ynylamino]-1,2,5-thiadiazole-1-oxide], the 50% effect level on histamine H2-receptors [1] (ED50) was put at a dose of 1.1 mg/kg. On histamine H2-receptors [2], the Kb is 3020 nM and the “slope of response (figure in brackets with pA2, guinea-pig atrium)” value is given as 0.95.
